Laboratory results published in US12344600B2, “c-Myc mRNA translation modulators and uses thereof in the treatment of cancer” (Anima Biotech Inc., priority 2022, dated 2025).
Starred links: 1 amine or outer side, 2 acyl side, 3 side chain; linkers in the order of their positions; H or OH if unused. Positions of bridges follow the written chain, without caps; N, C: chain ends. Non-standard residues stand in square brackets, D forms with d. Residues, ends and D or L forms follow the SMILES beside them. Chains are numbered I, II in the order given. Actinocin(9to1) = Cc1c2oc3c(C)ccc(C(=O)[*:1])c3nc-2c(C(=O)[*:2])c(N)c1=O; NMeV = CN[C@H](C(=O)O)C(C)C; Sar = CNCC(=O)O

Tests used:
Type in all cases: cell-based, human
c-Myc = c-Myc immunofluorescence assay; details: A549 cells, 24 hours; for Myc Efficacy (−LogEC50): anti-c-Myc immunofluorescence
Summary of the method: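 A549 NSCLC cells grown 48 h, then treated 24 h with increasing compound concentrations; fixed in 4% paraformaldehyde, stained with anti-c-Myc antibody plus fluorescent secondary and DAPI. Per-cell c-Myc fluorescence quantified by high-content imaging at 20×; dose-response fitted by logistic regression to give EC50.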

c-Myc mRNA [1] = assay: Fluorescent in situ hybridization (FISH) assay; details: A549 cells, 4 hours, FIG. 3 lower panel
Experimental: A549 cells were incubated with compounds for 24 hours (FIG. 3, upper panel) and c-Myc protein detected by immunofluorescence. In parallel, A549 cells were incubated with compounds for 4 hours and c-Myc mRNA was visualized by microscopy using c-Myc mRNA specific fluorescent-tagged probes (FIG. 3, lower panel).
A549 cells were grown in 384-wells plates (Perkin Elmer, Cat. 6057300) for 48 hours, treated with compounds for 4 hours and then fixed for 20 min in 4% paraformaldehyde. Next day, permeabilization was done for 90 min at 4° C., using 70% ethanol. Then, the cells were incubated for 10 min with 10% formamide in 10% saline-sodium citrate. Fluorescently labeled customer DNA probes that target c-Myc (Cy3, BioSearch Technologies, Cat. SMF-1063-5) and GAPDH (Cy5, BioSearch Technologies, Cat. SMF-2019-1) mRNAs were hybridized overnight at 37° C. in a dark chamber in 10% formamide. The next day, cells were washed twice with 10% formamide for 30 min. […]
Following RNA FISH experiments, images of cells were taken with Operetta (Perkin Elmer, USA), a wide-field fluorescence microscope at ×63 magnification. […] In Columbus, cells were identified by their nucleus, using the “Find Nuceli” module, cytoplasm was detected based on the FISH-channel, and single mRNAs in the cytoplasm and transcription sites in the nucleus were detected using “Find Spots” module. […]

c-Myc protein = c-Myc protein level in A549 cells (imaging)
From the text: (§1) A549 cells were exposed to vehicle, general transcription inhibitor actinomycin D or anti-c-Myc compound. […] Cell nuclei stained with DAPI, c-Myc protein, c-Myc mRNA and transcription sites are signed on the images.

c-Myc mRNA [2] = assay: c-Myc mRNA level and transcription sites in A549 cells (imaging)
From the text: as §1

[3] = tested on: global translation in A549 cells; assay: Metabolic labeling assay (global translation); details: 4 hour pulse, FIG. 2
Experimental: A549 cells were incubated with active compounds and metabolically labelled with fluorescent methionine for a 4 hour pulse (click-chemistry modified methionine). Cells were fixed and newly synthesized proteins detected by using click-chemistry with a fluorescent detector (FIG. 2).
A549 cells were seeded at 3,200 cells per well in complete culture medium. Plates were incubated at 37° C., 5% CO2 overnight. After 48 hours of incubation, the growth medium was aspirated, and cells were washed three times with HBSS. Metabolic labeling medium DMEM (-Cys -Met), containing 10% dialyzed FBS, 1% penicillin-streptomycin and 1% L-glutamine was added to the cells for 30 min. Then medium was replaced by metabolic labeling medium containing 25 μM L-Azidohomoalanine (AHA, ThermoFisher) and tested compounds at a final concentration of 30 μM, and cells were incubated for 4 hours at 37° C., 5% CO2. Cells were washed by HBSS at 37° C. for 15 min before fixing with 4% paraformaldehyde. Cells were washed twice with 3% BSA in PBS before permeabilization with 0.5% Triton X-100 in PBS for 20 min. The AHA staining with Alexa Fluor™ 555 alkyne was performed according to the manufacturer protocol. Images were captured with Operetta microscope (Perkin Elmer) using ×20 high NA objective lens.

global protein synthesis = assay: AHA metabolic labeling in A549 cells
From the text: FIG. 2 depicts selective regulation of c-Myc translation. […] Cell nuclei stained with DAPI and AHA metabolic labeling are signed on the images.

## COc1ccc(-c2noc(N3CCC(C(=O)NC[C@H]4CCN(C[C@H]5CCCN(C)C5)C4)CC3)n2)cc1 [Compound 465, 1-(3-(4-methoxyphenyl)-1,2,4-oxadiazol-5-yl)-N-(((R)-1-(((S)-1-methylpiperidin-3-yl)methyl)pyrrolidin-3-yl)methyl)piperidine-4-carboxamide]
c-Myc
  Myc Efficacy (−LogEC50): + (+ >3 and <5)

## COc1ccc(-c2noc(N3CCC(C(=O)NC[C@@H]4CCN(C[C@H]5CCCN(C)C5)C4)CC3)n2)cc1 [Compound 466, 1-(3-(4-methoxyphenyl)-1,2,4-oxadiazol-5-yl)-N-(((S)-1-(((S)-1-methylpiperidin-3-yl)methyl)pyrrolidin-3-yl)methyl)piperidine-4-carboxamide]
c-Myc
  Myc Efficacy (−LogEC50): + (+ >3 and <5)

## CN1CCC[C@H](CN2CCC(CNC(=O)C3CCN(c4nc(-c5ccc(C#N)cc5)no4)CC3)C2)C1 (stereo partly drawn) [Compound 467, 1-(3-(4-cyanophenyl)-1,2,4-oxadiazol-5-yl)-N-((1-(((S)-1-methylpiperidin-3-yl)methyl)pyrrolidin-3-yl)methyl)piperidine-4-carboxamide]
c-Myc
  Myc Efficacy (−LogEC50): + (+ >3 and <5)

## CN1CCC[C@H](CN2CCC(CNC(=O)C3CCN(c4nc(-c5ccc(Cl)cc5)no4)CC3)C2)C1 (stereo partly drawn) [Compound 468, 1-(3-(4-chlorophenyl)-1,2,4-oxadiazol-5-yl)-N-((1-(((S)-1-methylpiperidin-3-yl)methyl)pyrrolidin-3-yl)methyl)piperidine-4-carboxamide]
c-Myc
  Myc Efficacy (−LogEC50): ++ (++ ≥5 and <6)

## Cc1ccc(CN2CCC(CNC(=O)N3CCN(c4nc(-c5ccc(OCC(O)CO)cc5)no4)CC3)C2)cc1 (centres unmarked) [Compound 473, 4-(3-(4-(2,3-dihydroxypropoxy)phenyl)-1,2,4-oxadiazol-5-yl)-N-((1-(4-methylbenzyl)pyrrolidin-3-yl)methyl)piperazine-1-carboxamide]
c-Myc
  Myc Efficacy (−LogEC50): + (+ >3 and <5)

## CN1CCC[C@@H](CN2CC[C@@H](CNC(=O)C3CCN(c4nc(-c5ccc(Cl)cc5)no4)CC3)C2)C1 [Compound 474, 1-(3-(4-chlorophenyl)-1,2,4-oxadiazol-5-yl)-N-(((S)-1-(((R)-1-methylpiperidin-3-yl)methyl)pyrrolidin-3-yl)methyl)piperidine-4-carboxamide]
c-Myc
  Myc Efficacy (−LogEC50): ++ (++ ≥5 and <6)

## CN1CCC[C@@H](CN2CC[C@H](CNC(=O)C3CCN(c4nc(-c5ccc(Cl)cc5)no4)CC3)C2)C1 [Compound 475, 1-(3-(4-chlorophenyl)-1,2,4-oxadiazol-5-yl)-N-(((R)-1-(((R)-1-methylpiperidin-3-yl)methyl)pyrrolidin-3-yl)methyl)piperidine-4-carboxamide]
c-Myc
  Myc Efficacy (−LogEC50): ++ (++ ≥5 and <6)

## Cc1c2oc3c(C)ccc(C(=O)N[C@@H]4C(=O)N[C@H](C(C)C)C(=O)N5CCC[C@H]5C(=O)N(C)CC(=O)N(C)[C@@H](C(C)C)C(=O)O[C@@H]4C)c3nc-2c(C(=O)N[C@@H]2C(=O)N[C@H](C(C)C)C(=O)N3CCC[C@H]3C(=O)N(C)CC(=O)N(C)[C@@H](C(C)C)C(=O)O[C@@H]2C)c(N)c1=O [actinomycin D] (I: T[dV]P[Sar][NMeV] / II: T[dV]P[Sar][NMeV]; ester I:1-I:C, II:1-II:C; linker I:N-II:N via Actinocin(9to1))
c-Myc mRNA [1]
  c-Myc mRNA in the cytoplasm: inhibited
  c-Myc transcription site (spots inside the nucleus): inhibited transcription site
c-Myc protein
  c-Myc protein level: significant decrease
c-Myc mRNA [2]
  c-Myc mRNA level as well as transcription sites: complete reduction
c-Myc; FIG. 3 upper panel
  c-Myc protein by immunofluorescence: reduced c-Myc protein

## C[C@@H]1C[C@@H]([C@H](O)CC2CC(=O)NC(=O)C2)C(=O)[C@@H](C)C1 [cycloheximide]
[3]
  incorporation of modified methionine (global translation): completely reduced incorporation of modified methionine
Global protein synthesis
  global protein synthesis (AHA metabolic labeling): total inhibition
